From patent EP4653444A1, “FUSED TRICYCLIC COMPOUND AS KINASE INHIBITOR” (Hangzhou Innogate Pharma Co., Ltd., priority 2023, dated 2024)
Read-outs that look alike come from different tables or passages of the source.

What was measured:
[1] = Pharmacokinetic study in rats; settings: rat, plasma, po, 3 mg/kg
Procedure: Pharmacokinetic parameters were calculated by statistical moment method using WinNonLin 8.0 software, mainly including Tmax, T1/2, Cmax and AUC0-24h.
Animals: Three male SD rats weighing 200-220 g were used. After purchase, they were housed in the laboratory animal center for 2 days before experiment. […] Blood samples were collected at scheduled time points after oral gavage.
Vehicle: 0.4% ethanol + 0.4% Tween 80 + 99.2% (0.5% methylcellulose M450). Preparation of oral gavage solution: The compound was accurately weighed and dissolved in vehicle by ultrasonication for 5 min at room temperature to prepare 0.3 mg/mL drug solution.
Single compound administration was also used to study pharmacokinetics in rats.
Blood sample collection: After oral gavage, blood samples were collected from orbital sinus at 0.25, 0.5, 1, 2, 4, 8, 10 and 24 h. 50 µL plasma was mixed with 200 µL acetonitrile (containing 2 ng/mL verapamil as internal standard). The mixture was vortexed for 3 min, then centrifuged at 20000 rcf for 10 min at 4 °C. The supernatant was analyzed by LC-MS/MS.
Standard curves were established by accurately weighing and preparing compounds at different concentrations for mass spectrometric quantification. Compound concentrations in plasma samples were determined based on standard curves to obtain concentration-time profiles. All measurement data were collected and processed by relevant software. Pharmacokinetic parameters (including Tmax, T1/2, Cmax and AUC0-24h) were calculated by statistical moment method.

ALK kinase = ALK kinase (Homo sapiens, UniProt Q9UM73); assay: ALK kinase activity inhibition assay (HTRF); format: biochemical
Procedure: Measure compound inhibitory activity against ALK kinase using HTRF Assay.1× kinase reaction buffer was prepared. The kinase reaction conditions were as follows: kinase concentration at 0.04 ng/µL; ATP working concentration in substrate mixture solution at 2 µM; final substrate concentration at 1 µM. Compounds were serially diluted in DMSO and shaken on an orbital shaker for 20 minutes. 2× kinase solution was prepared using 1× kinase reaction buffer. 1 µL of compound solution was transferred to a 384-well plate. 2 µL of kinase solution was added to each well of the reaction plate. The plate was sealed with adhesive film, centrifuged at 1000 rpm for 60 seconds, and incubated at 25°C for 10 minutes. 2.5× ATP/substrate mixture was prepared using 1× kinase reaction buffer. 2 µL of 2.5× ATP/substrate mixture was added to the reaction plate. The plate was sealed with adhesive film, centrifuged at 1000 rpm for 60 seconds, and incubated at 25°C for 50 minutes. 4× Sa-XL 665 solution was prepared using HTRF detection buffer. 5 µL of Sa-XL 665 solution and 5 µL of TK-antibody-Cryptate solution were added to each well. The plate was centrifuged at 1000 rpm for 60 seconds and incubated at 25°C for 60 minutes. Fluorescence signals were measured at 615 nm (Cryptate) and 665 nm (XL665) using a BMG microplate reader. The ratio for each well was calculated as: Ratio_665/615nm. The inhibition percentage was calculated as follows: % inhibition = 100% - [(Compound Ratio - Positive Control Ratio)/(Negative Control Ratio - Positive Control Ratio)] × 100%. The IC50 values (half-maximal inhibitory concentration) of compounds were determined by fitting the data to the following nonlinear regression equation using GraphPad Prism 7.0 software: Y = Bottom + (Top - Bottom)/(1 + 10^(([…] - X) × Hill Slope)) where: X = log(compound concentration), Y = % inhibition.

FLT3 = biological target: T1, FLT3 (Homo sapiens, UniProt P36888); assay: FLT3 kinase activity inhibition assay (Mobility shift assay); format: biochemical
T1 sequence (P36888 27-993): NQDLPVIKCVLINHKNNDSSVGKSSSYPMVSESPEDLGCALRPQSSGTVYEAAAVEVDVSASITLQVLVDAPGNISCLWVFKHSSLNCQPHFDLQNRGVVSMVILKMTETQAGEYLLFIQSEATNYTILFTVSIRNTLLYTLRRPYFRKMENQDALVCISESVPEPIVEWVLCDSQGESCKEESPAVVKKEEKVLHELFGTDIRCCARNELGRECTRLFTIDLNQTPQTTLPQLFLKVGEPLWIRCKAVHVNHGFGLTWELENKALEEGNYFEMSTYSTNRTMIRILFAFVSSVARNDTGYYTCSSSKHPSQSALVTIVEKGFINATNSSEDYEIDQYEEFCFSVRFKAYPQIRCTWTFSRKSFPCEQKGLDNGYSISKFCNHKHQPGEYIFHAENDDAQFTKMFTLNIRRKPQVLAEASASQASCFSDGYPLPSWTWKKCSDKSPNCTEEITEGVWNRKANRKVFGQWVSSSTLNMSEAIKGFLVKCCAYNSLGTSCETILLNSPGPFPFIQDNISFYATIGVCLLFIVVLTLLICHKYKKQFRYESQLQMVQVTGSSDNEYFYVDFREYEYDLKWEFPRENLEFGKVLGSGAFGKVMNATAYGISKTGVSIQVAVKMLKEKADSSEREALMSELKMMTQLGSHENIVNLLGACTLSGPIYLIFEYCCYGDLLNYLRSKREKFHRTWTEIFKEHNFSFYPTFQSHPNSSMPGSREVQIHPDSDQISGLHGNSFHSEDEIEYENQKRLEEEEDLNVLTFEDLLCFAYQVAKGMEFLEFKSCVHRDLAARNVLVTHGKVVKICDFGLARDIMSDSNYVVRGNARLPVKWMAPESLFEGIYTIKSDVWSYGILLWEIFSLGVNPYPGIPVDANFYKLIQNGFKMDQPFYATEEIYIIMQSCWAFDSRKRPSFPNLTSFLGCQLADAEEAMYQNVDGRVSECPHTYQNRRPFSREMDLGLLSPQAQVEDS
Procedure: Testing compound inhibitory activity against FLT3 and AXL kinases using Mobility shift assay. Compounds were dissolved in 100% DMSO to prepare 10 mM stock solutions. Prepare 1× Kinase Buffer. Test compounds were serially diluted in 5-fold gradients, and 250 nL of 100× final concentration compounds were transferred to destination plate 3573 using an Echo 550 liquid handler. A 2.5× final concentration kinase solution was prepared in 1× Kinase Buffer. Then, 10 µL of the 2.5× kinase solution was added to both compound wells and positive control wells, while 10 µL of 1× Kinase Buffer was added to negative control wells. The plate was centrifuged at 1000 rpm for 30 seconds, mixed by orbital shaking, and incubated at room temperature for 10 minutes. A 5/3× final concentration mixture of ATP and Kinase Substrate 25 was prepared in 1× Kinase Buffer. The reaction was initiated by adding 15 µL of the 5/3× ATP/substrate mixture. The 384-well plate was centrifuged at 1000 rpm for 30 seconds, mixed by shaking, and incubated at room temperature for 120 minutes. The kinase reaction was terminated by adding 30 µL stop solution, followed by centrifugation at 1000 rpm for 30 seconds and mixing. Conversion rates were measured using a Caliper EZ Reader. %Inhibition = (Conversion%_max - Conversion%_sample)/(Conversion%_max - Conversion%_min) × 100. Where: Conversion%_sample: Conversion rate reading of test samples; Conversion%_min: Mean value of negative control wells (representing conversion rate without enzyme activity); Conversion%_max: Mean value of positive control wells (representing conversion rate without compound inhibition). Dose-response curves were plotted with log(concentration) as the X-axis and percentage inhibition as the Y-axis. Curve fitting was performed using GraphPad Prism 5 software with the "log(inhibitor) vs. response - Variable slope" model to derive IC50 values for each compound's enzyme inhibitory activity. The fitting formula was: Y = Bottom + (Top - Bottom)/(1 + 10^((LogIC50 - X) × HillSlope)).

[2] = Table 4, ATP 2 µM, read-out: ALK (IC50)

ALK kinase, sequence (Q9UM73 19-1620): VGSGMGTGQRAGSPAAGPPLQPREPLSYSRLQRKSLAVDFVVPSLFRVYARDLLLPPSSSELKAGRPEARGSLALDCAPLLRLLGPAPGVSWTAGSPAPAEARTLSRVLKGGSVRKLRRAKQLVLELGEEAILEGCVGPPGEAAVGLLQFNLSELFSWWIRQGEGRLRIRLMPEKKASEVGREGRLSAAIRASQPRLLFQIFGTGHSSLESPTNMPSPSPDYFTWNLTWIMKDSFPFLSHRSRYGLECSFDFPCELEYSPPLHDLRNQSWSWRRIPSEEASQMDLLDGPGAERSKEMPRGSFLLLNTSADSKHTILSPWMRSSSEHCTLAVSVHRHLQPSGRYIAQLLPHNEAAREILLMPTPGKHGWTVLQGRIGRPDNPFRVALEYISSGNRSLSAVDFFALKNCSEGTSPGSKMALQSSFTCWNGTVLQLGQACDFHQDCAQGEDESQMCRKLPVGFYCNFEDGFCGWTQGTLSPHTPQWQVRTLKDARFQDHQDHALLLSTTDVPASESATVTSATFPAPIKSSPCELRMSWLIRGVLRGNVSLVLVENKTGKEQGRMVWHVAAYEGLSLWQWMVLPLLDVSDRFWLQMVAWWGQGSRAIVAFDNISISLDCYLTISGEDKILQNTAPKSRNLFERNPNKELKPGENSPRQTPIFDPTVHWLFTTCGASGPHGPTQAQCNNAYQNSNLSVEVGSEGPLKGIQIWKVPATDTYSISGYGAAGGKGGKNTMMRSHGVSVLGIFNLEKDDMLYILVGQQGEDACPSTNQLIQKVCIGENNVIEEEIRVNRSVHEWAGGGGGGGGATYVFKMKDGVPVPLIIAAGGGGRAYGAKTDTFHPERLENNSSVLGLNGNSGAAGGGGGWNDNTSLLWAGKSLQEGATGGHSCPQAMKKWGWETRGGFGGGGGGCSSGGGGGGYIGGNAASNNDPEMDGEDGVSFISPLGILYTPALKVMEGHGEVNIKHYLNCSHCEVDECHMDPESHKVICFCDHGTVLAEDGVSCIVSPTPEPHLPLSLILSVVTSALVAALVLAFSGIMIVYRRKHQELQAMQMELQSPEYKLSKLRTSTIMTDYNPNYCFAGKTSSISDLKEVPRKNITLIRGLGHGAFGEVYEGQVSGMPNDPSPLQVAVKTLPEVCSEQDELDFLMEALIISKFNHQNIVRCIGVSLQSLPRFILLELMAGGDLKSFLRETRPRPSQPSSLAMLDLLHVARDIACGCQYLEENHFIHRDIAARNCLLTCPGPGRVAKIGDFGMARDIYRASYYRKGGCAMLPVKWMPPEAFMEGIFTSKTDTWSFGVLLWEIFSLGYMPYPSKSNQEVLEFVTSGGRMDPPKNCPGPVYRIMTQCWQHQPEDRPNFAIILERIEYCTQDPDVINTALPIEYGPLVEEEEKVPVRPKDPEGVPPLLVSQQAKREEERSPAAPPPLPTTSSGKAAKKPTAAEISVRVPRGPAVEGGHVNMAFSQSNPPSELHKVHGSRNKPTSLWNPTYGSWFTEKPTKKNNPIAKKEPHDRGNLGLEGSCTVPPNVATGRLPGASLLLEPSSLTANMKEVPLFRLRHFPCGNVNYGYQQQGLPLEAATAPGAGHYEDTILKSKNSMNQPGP

Row | SMILES | AUC(0-t) at 24 h [1] | Cmax [1] | Tmax [1] | half-life [1] | IC50 (ALK kinase; [2]) | IC50 (FLT3; Table 4, read-out: FLT3 (IC50)) | IC50 (ALK kinase) | IC50 (FLT3) | IC50 (FLT3; Table 3, read-out: FLT3 (IC50))
1 | CNC(=O)c1ccccc1Nc1cc(Nc2cc3c(cc2OC)N2CCN(C4CCN(C)CC4)C[C@H]2CO3)ncc1C(F)(F)F [Compound D2S] | 1470 ng·h/mL | 134 ng/mL | 3.33 h | 5.97 h | < 15 nM | < 50 nM |  |  | 
2 | COc1cc2c(cc1Nc1ncc(Cl)c(Nc3ccccc3S(=O)(=O)C(C)C)n1)OC[C@@H]1CN(C3CCN(C)CC3)CCN21 [Compound C2S] | 1970 ng·h/mL | 135 ng/mL | 10 h | 9.2 h |  |  | < 0.05 nM | < 30 nM | 
3 | CNC(=O)c1ccccc1Nc1cc(Nc2cc3c(cc2OC)N2CCN(C4CN(C)C4)C[C@H]2CO3)ncc1C(F)(F)F [Compound D4S] | 1660 ng·h/mL | 241 ng/mL | 5.33 h | 3.03 h | < 15 nM | < 70 nM |  |  | 
4 | CNC(=O)c1ccccc1Nc1cc(Nc2cc3c(cc2OC)N2CCN(C4CCN(C)CC4)C[C@@H]2CO3)ncc1C(F)(F)F [Compound D2R] |  |  |  |  |  |  | < 10 nM | < 20 nM | 
5 | COc1cc2c(cc1Nc1ncc(Cl)c(Nc3ccccc3S(=O)(=O)C(C)C)n1)OC[C@@H]1CN(C3CCOCC3)CCN21 [Compound C1S] | 136 ng·h/mL | 61.8 ng/mL | 0.83 h | 1.78 h |  |  |  |  | < 30 nM
